According to paper PMC4961418, “A Selective Irreversible Inhibitor of Furin Does Not Prevent Pseudomonas Aeruginosa Exotoxin A-Induced Airway Epithelial Cytotoxicity” (PLoS ONE, 2016):
pKi: −log10 of the molar value. Side chains are listed from the residue outwards. Peptide text beside a SMILES is read from it. * marks the point of attachment. Biotin = O=C1N[C@H]2[C@H](CS[C@H]2CCCCC(=O)*)N1; X1 = N=C(N)NCCCC(N*)P(=O)(Oc1ccccc1)Oc1ccccc1; Palmitoyl = CCCCCCCCCCCCCCCC(=O)*; Ahx = NCCCCCC(=O)O

Key:
cathepsin B = cathepsin B (Homo sapiens, UniProt P07858); test: Cathepsin B activity assay; assay type: biochemical; settings: up to and including a concentration of 10 μM, N = 3
Protocol: Fig 3 Comparison of QUB-F1 and furin I versus cathepsin B. Cathepsin B activity was assessed in the presence or absence of various concentrations of QUB-F1 or furin I (N = 3). Data represent mean ± s.e.m.

chymotrypsin = test: Fluorogenic protease activity assay, chymotrypsin; assay type: biochemical, human; settings: 10 μM inhibitor, Suc-Ala-Ala-Pro-Phe-NH2Mec 50 μM, N = 3
Text: Recombinant human enzymes were sourced as follows: furin and matriptase (R&D Systems); prostasin (Sino Biological); trypsin and chymotrypsin (Sigma-Aldrich); factor Xa and neutrophil elastase (Merck Millipore) and proteinase-3 and cathepsin G (Elastin Products, Missouri). Fluorogenic substrates were sourced as follows: p-Glu-Arg-Thr-Lys-Arg-NH2Mec and Boc-Gln-Ala-Arg-NH2Mec (R&D Systems); Boc-Ile-Glu-Gly-Arg-NH2Mec (Bachem); Z-Gly-Gly-Arg-NH2Mec, MeOSuc-Ala-Ala-Pro-Val-NH2Mec and Suc-Ala-Ala-Pro-Phe-NH2Mec (Sigma-Aldrich). All chemicals and reagents for the synthesis of QUB-F1 were supplied by Sigma-Aldrich unless otherwise indicated. Fmoc-Lys(Boc)-SASRIN resin was sourced from Bachem. Fmoc-protected amino acids and HCTU were supplied by Merck Millipore.
Recombinant protease activities were assessed using the cognate fluorogenic substrates (final concentration 50 μM) as follows: trypsin (Z-Gly-Gly-Arg-NH2Mec), prostasin and matriptase (Boc-Gln-Ala-Arg-NH2Mec), factor Xa (Boc-Ile-Glu-Gly-Arg-NH2Mec), neutrophil elastase and proteinase 3 (MeO-Suc-Ala-Ala-Pro-Val-NH2Mec), chymotrypsin and cathepsin G (Suc-Ala-Ala-Pro-Phe-NH2Mec). The rate of substrate hydrolysis in the presence or absence of furin inhibitors was assessed by continuous recording at λex 360 nm, λem 480 nm, over a period of 60 minutes using a FLUOstar Optima microplate reader (BMG Labtech). […]

CuFi-1 epithelial cells = test: PEA-induced epithelial cell toxicity (LDH cytotoxicity assay); assay type: cell-based, human; settings: 2 μg/ml PEA, 24 h, CF airway epithelial cells
Protocol: The CuFi-1 cell line was derived from human airway epithelium of a CF patient (F508del/F508del) transformed with a reverse transcriptase component of telomerase, hTERT and human papillomavirus type 16 E6 and E7 genes. Cells were grown as submerged cultures using bronchial epithelial growth medium (BEBM including a supplement pack) containing: epidermal growth factor, hydrocortisone, bovine pituitary extract, transferrin, bovine insulin, triiodothyronine, epinephrine, retinoic acid, penicillin-streptomycin (0.025 μg/ml), gentamycin ([…]) and amphotericin (25 μg/ml).
Cytotoxicity was determined using the LDH-Cytotoxicity Colorimetric Assay Kit II (Bio Vision) in accordance with the instructions provided by the manufacturer. Addition of the supplied cell lysis solution to control wells was used to determine 100% cytotoxicity in each set of experiments.
Fig 4 Effect of furin inhibitors on PEA-induced epithelial cell toxicity. (A) Cell toxicity (%) induced by 2 μg/ml PEA (24 h) was measured in the presence or absence of furin I or QUB-F1. Data represent mean ± s.e.m. *P<0.05. (B) Airway epithelial cell surface furin-like activity was assayed upon application of the furin fluorogenic substrate (pERTKR) to cell cultures in the presence or absence of 10 μM furin I or QUB-F1.

recombinant human furin = target: T1, recombinant human furin (Homo sapiens, UniProt P09958); test: Second order rate constant determination, steady-state fluorimetric assay (pERTKR-NH2Mec); assay type: biochemical; settings: irreversible inhibitor kinetics, 50 μM pERTKR-NH2Mec, 37°C, pH 7.4
T1 construct: purchased R&D Systems
T1 sequence (P09958 108-794): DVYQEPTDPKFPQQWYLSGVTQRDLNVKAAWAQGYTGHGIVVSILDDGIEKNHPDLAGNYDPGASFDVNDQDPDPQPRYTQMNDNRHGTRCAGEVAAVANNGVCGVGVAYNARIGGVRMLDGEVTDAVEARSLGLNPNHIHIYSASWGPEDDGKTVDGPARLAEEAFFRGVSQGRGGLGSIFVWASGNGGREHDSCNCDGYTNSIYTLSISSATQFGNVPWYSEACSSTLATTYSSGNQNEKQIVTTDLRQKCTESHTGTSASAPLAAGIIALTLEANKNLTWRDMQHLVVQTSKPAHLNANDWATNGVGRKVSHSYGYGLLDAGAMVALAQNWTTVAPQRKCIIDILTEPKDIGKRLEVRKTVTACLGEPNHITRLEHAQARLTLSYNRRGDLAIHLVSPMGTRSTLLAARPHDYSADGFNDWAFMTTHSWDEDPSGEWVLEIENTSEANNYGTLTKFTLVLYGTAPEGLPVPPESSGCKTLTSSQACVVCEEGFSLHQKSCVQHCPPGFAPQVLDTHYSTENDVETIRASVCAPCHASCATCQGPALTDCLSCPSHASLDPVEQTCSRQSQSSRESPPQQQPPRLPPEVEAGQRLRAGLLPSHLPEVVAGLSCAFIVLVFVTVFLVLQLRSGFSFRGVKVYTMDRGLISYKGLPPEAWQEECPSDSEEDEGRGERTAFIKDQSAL
Protocol: A range of final inhibitor concentrations (at least 5) were prepared from a 10 mM stock solution of QUB-F1 (in N,N-dimethyformamide (DMF)). The fluorogenic substrate, p-Glu-Arg-Thr-Lys-Arg-NH2Mec (pERTKR-AMC), was diluted in assay buffer (25 mM Tris/HCl containing 1 mM CaCl2, pH 7.4) and used at a fixed concentration of 50 μM throughout. All inhibition assays were performed in microtitre plates maintained at 37°C in a final volume of 100 μl. The reaction was initiated by the addition of recombinant human furin (0.01 μg/well) and the rate of substrate hydrolysis continuously recorded at λex 360 nm, λem 480 nm, over a period of 90 minutes using a FLUOstar Optima microplate reader (BMG Labtech). The resultant inhibition progress curve for QUB-F1 was then analysed according to the kinetic models developed by Tian and Tsou and Walker and Elmore, for irreversible inhibitors, using GRAFIT (Erithacus Software). The inhibitor constant Ki, the apparent first order rate constant k3, and over all second-order rate constant (k3/Ki) for QUB-F1 against furin was determined, from a plot of 1/A against [I] (where A is the apparent second-order rate constant for irreversible inhibition determined for each inhibitor concentration [I]). The determination of Km and Vmax were also determined separately by fitting initial rates of hydrolysis to substrate concentration, according to Michaelis-Menten kinetics, also using GRAFIT (Erithacus Software). The inhibitor constant Ki, the apparent first order rate constant k3, and the overall second-order rate constant (k3/Ki) for QUB-F1 against furin were determined, from a plot of 1/A against [I] (where A is the apparent second-order rate constant for irreversible inhibition determined for each inhibitor concentration [I]).
The ability of QUB-F1 to inhibit recombinant human furin was assessed using a steady-state fluorimetric assay employing the cognate fluorescent substrate (pERTKR-NH2Mec). The k3, Ki and k3/Ki values where determined as follows: Ki 9.33 (± 0.32) x 10^−7 M, k3 0.016 (± 0.004) min^-1 and k3/Ki […] M^-1 min^-1. […]

CCCCCCCCCCCCCCCC(=O)N[C@@H](CCCCNC(=O)CCCCCNC(=O)CCCC[C@@H]1SC[C@@H]2NC(=O)N[C@@H]21)C(=O)N[C@@H](CCCNC(=N)N)C(=O)N[C@H](C(=O)N[C@@H](CCCCN)C(=O)NC(CCCNC(=N)N)P(=O)(Oc1ccccc1)Oc1ccccc1)C(C)C (stereo partly drawn) [QUB-F1, N^α-Pal-N^ω-(Biotinyl-Ahx)-Lys-RVKR^P(OPh)2] (Palmitoyl-K([Ahx-Biotin])RVK-X1)
inhibitory action on cathepsin B (cathepsin B): no inhibitory action
inhibition of chymotrypsin (chymotrypsin): Neither compound was found to inhibit
effect on PEA-induced epithelial cell toxicity (CuFi-1 epithelial cells): offered no protection
pKi (recombinant human furin): 6.03
k3 (apparent first order rate constant) (recombinant human furin): 0.016 (± 0.004) min^-1
kinact/KI (recombinant human furin; read-out: k3/Ki (overall second-order rate constant) (converted)): 342 M⁻¹ s⁻¹
